Our source for the IC50 values is publication doi:10.1101/2020.12.17.423306v1 (biorxiv, 2020).

The target in one assay is T1, OsHSL1 (Oryza sativa, UniProt A0A7G1K9G4).
T1 sequence (A0A7G1K9G4 1-350): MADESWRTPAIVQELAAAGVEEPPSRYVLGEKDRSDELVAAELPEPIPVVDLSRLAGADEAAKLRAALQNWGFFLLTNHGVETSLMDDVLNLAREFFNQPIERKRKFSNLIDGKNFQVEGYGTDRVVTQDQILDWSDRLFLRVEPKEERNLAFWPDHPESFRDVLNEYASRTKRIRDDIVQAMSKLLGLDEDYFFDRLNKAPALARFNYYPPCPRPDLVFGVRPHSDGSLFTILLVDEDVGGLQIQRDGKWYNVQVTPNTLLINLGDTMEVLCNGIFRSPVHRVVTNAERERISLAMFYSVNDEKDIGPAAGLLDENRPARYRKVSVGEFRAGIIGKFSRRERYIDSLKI
The experiment in a line: HPLC of TFT conversion. The assay is classed as biochemical.

Another assay has as its target T2, HIS1 (Oryza sativa, UniProt A0A7G1K8F5).
T2 sequence (A0A7G1K8F5 1-351): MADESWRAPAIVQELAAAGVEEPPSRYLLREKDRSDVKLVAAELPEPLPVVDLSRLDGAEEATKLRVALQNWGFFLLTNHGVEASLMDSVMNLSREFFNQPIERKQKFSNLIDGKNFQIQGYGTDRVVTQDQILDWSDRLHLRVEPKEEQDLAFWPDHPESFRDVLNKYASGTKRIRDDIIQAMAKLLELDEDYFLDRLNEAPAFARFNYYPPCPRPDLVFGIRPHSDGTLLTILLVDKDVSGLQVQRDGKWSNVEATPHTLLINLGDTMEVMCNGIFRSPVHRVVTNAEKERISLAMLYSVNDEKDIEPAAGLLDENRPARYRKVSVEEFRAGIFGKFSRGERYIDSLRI
The experiment in a line: HPLC of BBC-OH hydroxylation. Format: biochemical.

Usually IC50 stands for the concentration that gives 50% inhibition. `CCOC(=O)C1CC(=O)C(=C(O)C2CC2)C(=O)C1` (centres unmarked) [TE, ethyl-(3-oxido-4-cyclopropionyl-5-oxo) oxo-3-cyclohexenecarboxylate] had an IC50 against OsHSL1 of around 125 µM.
The compound `CCC(=O)C1C(=O)CC(C(=O)O)CC1=O` (centres unmarked) [prohexadione, 3,5-dioxo-4-propionylcyclohexanecarboxylic acid] returned an IC50 against HIS1 of 50 µM.
